Measurements reported in paper PMC3463587, “A Series of Beta-Carboline Derivatives Inhibit the Kinase Activity of PLKs” (PLoS ONE, 2012).

Assays:
MRC5 cells [1] = test: FITC-Annexin V/PI apoptosis assay, MRC5; assay type: cell-based, Human; conditions: 48 hr
Source text: Staining with Annexin V–FITC and propidium iodide (PI) is commonly used to distinguish apoptotic, necrotic, and dead cells. PI is impermeant to live cells and apoptotic cells at early stages, but it stains dead cells and apoptotic cells at late stages through its binding to the nucleic acids. Apoptotic cells in early or late stages are stained positively for Annexin V-FITC that binds to phosphotidylserine. We used FACS analysis to determine the proportion of HeLa cells positive for Annexin V-FITC (FITC), PI, or both. The HeLa cells with PI^−/PI^+ FITC^+ were counted as apoptotic cells (Figure 5). […] However, 16.19% (3.96+12.23) of HeLa cells became FITC positive after treatment with 1.05 µM DH281 for 48 hr. The treatment with 5.25 µM DH281 induced apoptosis among 89.6% (89.51+0.09) of HeLa cells (Table 5). […] In contrast to HeLa cells, the induction of apoptosis by DH281 was much less efficient in non-cancer MRC5 cells (Table 5). Therefore, we conclude that the treatment with compounds DH281, DH285 and DH287 induces substantial apoptosis in HeLa cells, but non-cancer MRC5 cells are much less sensitive to the treatment. The distinct apoptotic responses of HeLa and MRC5 cells to beta-carboline compounds could explain the selectivity of PLK1 inhibitors toward cancer cells.
HeLa cells were either treated with 0, 0.21, 1.05 and 5.25 µM of DH281, DH285 and DH287 for 48 hr, or treated with 1.21 µM compounds for 24, 48 and 72 hr, while MRC5 cells were exposed to compounds at 0, 0.21, 1.05, and 5.25 µM for 48 hr. The cultured cells were harvested, washed three times with PBS, and resuspended in 500 µl binding buffer (10 mM Hepes/sodium hydroxide (pH7.4), 140 mM sodium chloride, and 2.5 mM CaCl2). Then 5 µl FITC-labeled Annexin V (Zhongshan JinQiao Biotechnology Ltd., Beijing) was added and the cells were incubated in the dark for 10 min. We added 5 µl of propidium iodide (PI) (10 µg/ml in binding buffer) to each sample before flow cytometry analysis.

HepG2 cells = test: MTT cell proliferation assay, HepG2; assay type: cell-based; conditions: Homo sapiens, 48 hr
Source text: (§1) BI2536 was purchased from Selleck (Selleck, USA).

MG63 cells = test: MTT cell proliferation assay, MG63; assay type: cell-based; conditions: Homo sapiens, MG-63, 48 hr
Source text: as §1

Aurora-A = molecular target: T1, Aurora-A (Homo sapiens, UniProt O14965); test: In vitro kinase assay Aurora A; assay type: biochemical
T1 sequence (O14965 1-403): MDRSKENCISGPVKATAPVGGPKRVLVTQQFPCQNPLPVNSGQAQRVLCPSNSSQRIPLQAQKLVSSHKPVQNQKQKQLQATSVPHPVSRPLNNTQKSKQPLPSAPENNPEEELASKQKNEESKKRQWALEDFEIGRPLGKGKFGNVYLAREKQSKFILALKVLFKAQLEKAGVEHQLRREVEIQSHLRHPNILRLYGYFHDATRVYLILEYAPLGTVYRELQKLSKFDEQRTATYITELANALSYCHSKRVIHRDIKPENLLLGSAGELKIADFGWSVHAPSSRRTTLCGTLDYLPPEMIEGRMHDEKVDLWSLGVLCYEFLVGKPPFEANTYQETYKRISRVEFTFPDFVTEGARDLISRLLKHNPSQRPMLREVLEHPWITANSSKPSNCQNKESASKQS
Method: (§2) The inhibition of PLK1 kinase activity was assessed using the Cyclex PLK1 Assay/Inhibitor Screening Kit (MBL International Corporation, Japan). The kit includes anti-phospho-threonine polyclonal antibody (PPT-07) and peroxidase coupled anti-rabbit IgG antibody as a reporter in a 96-well ELSIA format. Compounds were used at the concentrations from 10^− ^3 to 10^2 µg/ml and the absorbance was determined at 450 nm. A similar protocol was used to determine the kinase inhibition for PLK2, PLK3, Aurora A and Aurora B. The kinase activity of CDK1/cyclinB and CDK2/cyclinE was analyzed in the presence of serially diluted inhibitors. For each reaction, 20 ng of recombinant kinase was used and […] casein from bovine milk (Sigma) was added as the kinase substrate. The kinase reaction buffer contains 8 mM MOPS pH7.0, 0.2 mM EDTA, 0.1 mg/ml histone H1, 10 mM and MgAcetace and [γ^− ^33P-ATP] (500 cpm/pmol). The reaction was initiated by adding the MgATP mix. After incubation for 40 minutes at room temperature, the reaction was stopped by the addition of 3% phosphoric acid solution. We spotted 10 µl of the reaction mixture onto a P30 filtermat and washed three times for 5 min with 75 mM phosphoric acid and once with methanol prior to drying and scintillation counting.

Aurora-B = Aurora-B (Homo sapiens, UniProt Q96GD4); test: In vitro kinase assay Aurora B; assay type: biochemical
Method: as §2

MRC5 cells [2] = conditions: read-out: IC50 MRC5; MTT, 48 hr, non-cancer cells
Method: All the beta-carboline derivatives were provided by Xinjiang Huashidan Pharmaceutical Co. Ltd. The culture media and fetal bovine serum (FBS) were purchased from Hyclone (Hyclone Laboratories Inc., USA). […] All the cell lines were obtained from the Cell Culture Centre, Institute of Basic Medical Science, Chinese Academy of Medical Science and incubated at 37°C supplied with 5% CO2. HeLa cells were grown in standard DMEM with 10% FBS.
MRC5, HeLa, HepG2, PC3 and MG63 cells were seeded at 3000–6000 cells/well (200 µl/well) in a 96-well plate and incubated overnight. Then different concentrations of compounds were added into the cell cultures with a final concentration of 0.1% DMSO and incubated for an additional 48 hr. After that, 22 µl MTT solution (5 mg/ml) was added into each well and incubated at 37°C for 4 hr.

Chain of Aurora-B (Q96GD4 whole entry): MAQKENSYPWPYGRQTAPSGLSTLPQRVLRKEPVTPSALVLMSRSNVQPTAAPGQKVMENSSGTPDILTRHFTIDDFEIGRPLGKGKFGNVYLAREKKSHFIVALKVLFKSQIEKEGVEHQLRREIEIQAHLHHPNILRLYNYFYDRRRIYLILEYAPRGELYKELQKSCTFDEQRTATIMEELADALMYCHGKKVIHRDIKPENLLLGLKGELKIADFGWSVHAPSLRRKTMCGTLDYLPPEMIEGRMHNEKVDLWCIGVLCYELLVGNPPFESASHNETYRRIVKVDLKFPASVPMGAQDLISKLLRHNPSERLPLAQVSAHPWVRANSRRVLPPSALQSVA

Structure (SMILES) | PI+ FITC+ (late apoptotic cells) (MRC5 cells [1]; MRC5, 0.21 µM) | PI+ FITC− (dead cells) (MRC5 cells [1]; MRC5, 0.21 µM) | PI− FITC− (live cells) (MRC5 cells [1]; MRC5, 0.21 µM) | PI+ FITC+ (late apoptotic cells) (MRC5 cells [1]; MRC5, 1.05 µM) | PI+ FITC− (dead cells) (MRC5 cells [1]; MRC5, 1.05 µM) | PI− FITC+ (early apoptotic cells) (MRC5 cells [1]; MRC5, 1.05 µM) | PI− FITC− (live cells) (MRC5 cells [1]; MRC5, 1.05 µM) | PI+ FITC+ (late apoptotic cells) (MRC5 cells [1]; MRC5, 5.25 µM) | PI+ FITC− (dead cells) (MRC5 cells [1]; MRC5, 5.25 µM) | PI− FITC+ (early apoptotic cells) (MRC5 cells [1]; MRC5, 5.25 µM) | PI− FITC− (live cells) (MRC5 cells [1]; MRC5, 5.25 µM) | IC50 (HepG2 cells) | IC50 (MG63 cells) | IC50 (Aurora-A) | IC50 (Aurora-B) | IC50 (MRC5 cells [2])
Cc1c2c(cc[n+]1Cc1ccccc1)c1ccc(OCc3ccc(F)cc3)cc1n2CCCc1ccccc1 [DH281] | 5.07% | 1.63% | 92.4% | 0.59% | 0.01% | 13.3% | 86.1% | 7.76% | 10.5% | 18.5% | 63.2% | 2.24 ± 0.04 µM | 1.6 ± 0.15 µM | – | – | –
Cc1c2c(cc[n+]1Cc1ccccc1)c1ccc(OCc3ccccc3)cc1n2Cc1ccccc1 [DH287] | – | – | – | – | – | – | – | – | – | – | – | 10.7 ± 0.31 µM | 1.79 ± 0.29 µM | 22.6 µM | 24.7 µM | 3.06 ± 0.69 µM
